According to patent publication US20180099931A1 (AbbVie S.à.r.l., priority 2016, published 2018):
Where two headings read alike, the source gives them in different places.

Target: T1, F508delCFTR (Homo sapiens, UniProt P13569, DEL508-508)
T1 construct: expressed in transfected cells; host or cells: CFBE41o- human lung-derived epithelial cells (CFBE4lo-F508delCFTR-HRP), doxycycline-inducible
Assay: Cell Surface Expression-Horse Radish Peroxidase (CSE-HRP) Assay;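 on Maximum % activity (with co-corrector): co-corrector and positive control are both the same reference corrector at 2 µM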;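 on Maximum % activity (without co-corrector): percent of the 2 µM on-plate positive control corrector response above DMSO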
Assay type: cell-based
Settings: for Emax / Maximum % activity (with co-corrector): maximum at any tested concentration, normalized to on-plate positive control; for Emax: read-out: Maximum % activity (without co-corrector); for Maximum % activity (with co-corrector): with co-corrector (2 μM)

[1] = test compound without co-corrector
[2] = test compound without co-corrector, read-out: EC50 (without co-corrector)
[3] = with co-corrector (2 μM of 3-[(2R,4R)-4-({[1-(2,2-difluoro-1,3-benzodioxol-5-yl)cyclopropyl]carbonyl}amino)-7-methoxy-3,4-dihydro-2H-chromen-2-yl]benzoic acid), read-out: EC50 (with co-corrector)

T1 sequence (P13569 with tags, fused parts or gaps DEL508-508): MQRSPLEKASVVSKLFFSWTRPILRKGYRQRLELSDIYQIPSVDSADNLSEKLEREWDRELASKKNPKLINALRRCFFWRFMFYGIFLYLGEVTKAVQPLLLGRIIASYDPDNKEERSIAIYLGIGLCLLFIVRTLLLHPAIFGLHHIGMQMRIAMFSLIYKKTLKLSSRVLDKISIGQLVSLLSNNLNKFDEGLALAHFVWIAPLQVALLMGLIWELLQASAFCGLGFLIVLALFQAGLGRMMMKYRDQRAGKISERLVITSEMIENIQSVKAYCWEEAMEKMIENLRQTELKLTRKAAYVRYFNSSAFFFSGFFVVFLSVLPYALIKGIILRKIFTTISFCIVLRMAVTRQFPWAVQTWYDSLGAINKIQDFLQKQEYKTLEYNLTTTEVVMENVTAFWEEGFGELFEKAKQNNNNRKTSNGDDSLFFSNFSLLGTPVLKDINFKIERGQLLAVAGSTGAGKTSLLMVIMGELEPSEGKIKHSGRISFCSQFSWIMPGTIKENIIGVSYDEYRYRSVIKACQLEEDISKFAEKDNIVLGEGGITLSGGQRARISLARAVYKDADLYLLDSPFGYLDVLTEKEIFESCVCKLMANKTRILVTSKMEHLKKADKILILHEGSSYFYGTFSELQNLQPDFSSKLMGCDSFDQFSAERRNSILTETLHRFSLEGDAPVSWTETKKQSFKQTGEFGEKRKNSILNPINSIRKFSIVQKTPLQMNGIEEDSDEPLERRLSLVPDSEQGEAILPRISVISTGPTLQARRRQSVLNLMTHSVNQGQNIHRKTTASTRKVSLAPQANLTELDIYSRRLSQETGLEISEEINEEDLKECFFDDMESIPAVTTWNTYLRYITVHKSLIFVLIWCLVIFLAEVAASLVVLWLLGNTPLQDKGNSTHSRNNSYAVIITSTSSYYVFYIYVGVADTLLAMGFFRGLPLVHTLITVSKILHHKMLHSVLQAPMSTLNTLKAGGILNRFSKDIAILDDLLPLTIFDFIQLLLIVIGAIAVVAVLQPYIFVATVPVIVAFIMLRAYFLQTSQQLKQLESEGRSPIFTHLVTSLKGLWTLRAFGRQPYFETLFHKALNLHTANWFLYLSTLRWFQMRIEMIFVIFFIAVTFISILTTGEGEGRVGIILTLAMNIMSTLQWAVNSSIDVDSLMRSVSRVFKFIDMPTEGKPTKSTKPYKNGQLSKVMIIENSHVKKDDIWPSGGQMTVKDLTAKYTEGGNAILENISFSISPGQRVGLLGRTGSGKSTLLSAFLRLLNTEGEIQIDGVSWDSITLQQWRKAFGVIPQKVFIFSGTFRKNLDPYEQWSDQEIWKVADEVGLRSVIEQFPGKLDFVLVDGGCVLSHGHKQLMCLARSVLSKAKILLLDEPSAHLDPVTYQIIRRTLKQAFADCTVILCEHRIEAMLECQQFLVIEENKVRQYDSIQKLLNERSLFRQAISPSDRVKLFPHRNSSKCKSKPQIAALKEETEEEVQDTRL

SMILES	Emax [1] [%]	EC50 [2] [µM]	EC50 [3] [µM]	Maximum % activity (with co-corrector)
CC(C)(C)[C@H]1[C@H](Nc2cncc3ccccc23)[C@H](c2ccccc2)N(C(=O)C2CCCCC2)[C@@H]1C(=O)O [III-162]	< 100	1 to 10	1 to 10	++ (≥150 and <350)
COc1cc(C(F)(F)F)ccc1CN[C@H]1[C@H](C(C)(C)C)[C@@H](C(=O)O)N(C(=O)c2cccnc2)[C@H]1c1ccccc1 [III-163]	< 100	1 to 10	1 to 10	++ (≥150 and <350)
COc1ccc(C(F)(F)F)cc1CN[C@H]1[C@H](C(C)(C)C)[C@@H](C(=O)O)N(C(=O)C2CCCCC2)[C@H]1c1ncccc1Cl [III-164]	< 100	> 10	1 to 10	++ (≥150 and <350)
COc1ncc(C(F)(F)F)cc1CN[C@@H]1[C@@H](C(C)(C)C)[C@H](C(=O)O)N(C(=O)[C@@H]2CCCCO2)[C@@H]1c1ccccc1 [III-165]	< 100	1 to 10	1 to 10	++ (≥150 and <350)
COc1ccc(C(C)(C)C)cc1CN[C@H]1[C@H](C(C)(C)C)[C@@H](C(=O)O)N(C(=O)Cc2ccc(Cl)cc2)[C@H]1c1ccccc1 [III-166]	100 to 200	1 to 10	< 1	+++ (≥350)
COc1ccc(C(C)(C)C)cc1CN[C@H]1[C@H](C(C)(C)C)[C@@H](C(=O)O)N(C(=O)CC2CCCCC2)[C@H]1c1ccccc1 [III-167]	> 200	1 to 10	< 1	+++ (≥350)
CCC(C)c1ccc(OC)c(CN[C@H]2[C@H](C(C)(C)C)[C@@H](C(=O)O)N(C(=O)C3CCCCC3)[C@H]2c2ccccc2)c1 (some centres unmarked) [III-168]	> 200	< 1	< 1	+++ (≥350)
COc1ccc(CC2CCCCC2)cc1CN[C@H]1[C@H](C(C)(C)C)[C@@H](C(=O)O)N(C(=O)C2CCCCC2)[C@H]1c1ccccc1 [III-169]	> 200	< 1	< 1	+++ (≥350)
CCC(CC)Cc1ccc(OC)c(CN[C@H]2[C@H](C(C)(C)C)[C@@H](C(=O)O)N(C(=O)C3CCCCC3)[C@H]2c2ccccc2)c1 [III-170]	> 200	< 1	< 1	+++ (≥350)
COc1ccc(C(C)c2ccccc2)cc1CN[C@H]1[C@H](C(C)(C)C)[C@@H](C(=O)O)N(C(=O)C2CCCCC2)[C@H]1c1ccccc1 (some centres unmarked) [III-171]	> 200	1 to 10	< 1	+++ (≥350)
COc1ccc(C(C)(C)C)cc1CN[C@H]1[C@H](C(C)(C)C)[C@@H](C(=O)O)N(C(=O)Cc2ccc(F)c(F)c2)[C@H]1c1ccccc1 [III-172]	100 to 200	1 to 10	< 1	+++ (≥350)
COc1ccc(C(C)(C)C)cc1CN[C@H]1[C@H](C(C)(C)C)[C@@H](C(=O)O)N(C(=O)Cc2ccc(F)cc2F)[C@H]1c1ccccc1 [III-173]	> 200	1 to 10	< 1	+++ (≥350)
COc1ccc(C(C)(C)C)cc1CN[C@H]1[C@H](C(C)(C)C)[C@@H](C(=O)O)N(C(=O)C2CCC(C)CC2)[C@H]1c1ccccc1 (some centres unmarked) [III-174]	> 200	< 1	< 1	+++ (≥350)
COc1ccc(C(C)(C)C)cc1CN[C@H]1[C@H](C(C)(C)C)[C@@H](C(=O)O)N(C(=O)C2CCCC(C)C2)[C@H]1c1ccccc1 (some centres unmarked) [III-175]	> 200	< 1	< 1	+++ (≥350)
COc1ccc(C(C)(C)C)cc1CN[C@H]1[C@H](C(C)(C)C)[C@@H](C(=O)O)N(C(=O)c2cn(C)cc(C)c2=O)[C@H]1c1ccccc1 [III-176]	< 100	> 10	> 10	+ (<150)
COc1ccc(C(C)(C)C)cc1CN[C@H]1[C@H](C(C)(C)C)[C@@H](C(=O)O)N(C(=O)c2cn(C)c3ccccc23)[C@H]1c1ccccc1 [III-177]	< 100	1 to 10	1 to 10	++ (≥150 and <350)
COc1ccc(C(C)(C)C)cc1CN[C@H]1[C@H](C(C)(C)C)[C@@H](C(=O)O)N(C(=O)c2cc(F)cc3c2OCOC3)[C@H]1c1ccccc1 [III-178]	100 to 200	1 to 10	1 to 10	+++ (≥350)
COc1ccc(C(C)(C)C)cc1CN[C@H]1[C@H](C(C)(C)C)[C@@H](C(=O)O)N(C(=O)C2CCOC(C(C)C)C2)[C@H]1c1ccccc1 (some centres unmarked) [III-179]	> 200	1 to 10	< 1	+++ (≥350)
CC(C)(C)[C@H]1[C@H](NCc2cc3ccccc3nc2O)[C@H](c2ccccc2)N(C(=O)C2CCCCC2)[C@@H]1C(=O)O [III-180]	< 100	> 10	1 to 10	++ (≥150 and <350)
COc1ccc(C23CC4CC(CC(C4)C2)C3)cc1CN[C@H]1[C@H](C(C)(C)C)[C@@H](C(=O)O)N(C(=O)C2CCCCC2)[C@H]1c1cccnc1N(C)C [III-183]	> 200	< 1	< 1	+++ (≥350)
COc1ccc(C(F)(F)F)cc1CN[C@H]1[C@H](C(C)(C)C)[C@@H](C(=O)O)N(C(=O)[C@H]2CCCC(F)(F)C2)[C@H]1c1ccccc1 [III-185]	< 100	1 to 10	1 to 10	++ (≥150 and <350)
COc1ccc(-c2cnn(C)c2)cc1CN[C@H]1[C@H](C(C)(C)C)[C@@H](C(=O)O)N(C(=O)C2CCCCC2)[C@H]1c1ccccc1 [III-186]	< 100	1 to 10	1 to 10	++ (≥150 and <350)
COc1ccc(-c2cnn(C3CC3)c2)cc1CN[C@H]1[C@H](C(C)(C)C)[C@@H](C(=O)O)N(C(=O)C2CCCCC2)[C@H]1c1ccccc1 [III-187]	< 100	1 to 10	1 to 10	++ (≥150 and <350)
COc1ncc(C(F)(F)F)cc1CN[C@H]1[C@H](C2(C)CC2)[C@@H](C(=O)O)N(C(=O)C2CCCCC2)[C@H]1c1ccccc1 [III-189]	< 100	1 to 10	1 to 10	++ (≥150 and <350)
COc1ccc(C(C)(C)C)cc1CN[C@H]1[C@H](C(C)(C)C)[C@@H](C(=O)O)N(C(=O)C(C)Oc2cc(C)cc(C)c2)[C@H]1c1ccccc1 (some centres unmarked) [III-190]	> 200	1 to 10	< 1	+++ (≥350)
COc1ccc(C(C)(C)C)cc1CN[C@H]1[C@H](C(C)(C)C)[C@@H](C(=O)O)N(C(=O)C2CCc3ccccc3C2)[C@H]1c1ccccc1 (some centres unmarked) [III-191]	> 200	< 1	< 1	+++ (≥350)
COc1ccc(C(C)(C)C)cc1CN[C@H]1[C@H](C(C)(C)C)[C@@H](C(=O)O)N(C(=O)C2C3C2[C@H]2CC[C@@H]3C2)[C@H]1c1ccccc1 (some centres unmarked) [III-192]	> 200	< 1	< 1	+++ (≥350)
COc1ccc(C(C)(C)C)cc1CN[C@H]1[C@H](C(C)(C)C)[C@@H](C(=O)O)N(C(=O)C2CC2c2cccs2)[C@H]1c1ccccc1 (some centres unmarked) [III-193]	> 200	< 1	< 1	+++ (≥350)
COc1ccc(C(C)(C)C)cc1CN[C@H]1[C@H](C(C)(C)C)[C@@H](C(=O)O)N(C(=O)c2cnn(-c3cccc(C)c3)c2C(C)C)[C@H]1c1ccccc1 [III-194]	100 to 200	1 to 10	< 1	+++ (≥350)
